Molecular target: T1, human GluN1/GluN2B NMDA receptors (Homo sapiens, UniProt Q05586+Q13224)
T1 construct: expressed in transfected cells
Assay: Calcium flux (FLIPR) assay on cloned human NR1/GluN2B ion channels expressed in mammalian cells (standard and HTS variants)
Assay type: cell-based
Settings: cells expressing human GluN1/GluN2B, glutamate and glycine co-agonists
How it was run: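 Calcium influx read by FLIPR after co-agonist addition (glycine 10 μM, glutamate near EC40) following 5 min compound preincubation, with signal normalized to control wells.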

T1 sequence (Q13224 27-1484, other chains not shown): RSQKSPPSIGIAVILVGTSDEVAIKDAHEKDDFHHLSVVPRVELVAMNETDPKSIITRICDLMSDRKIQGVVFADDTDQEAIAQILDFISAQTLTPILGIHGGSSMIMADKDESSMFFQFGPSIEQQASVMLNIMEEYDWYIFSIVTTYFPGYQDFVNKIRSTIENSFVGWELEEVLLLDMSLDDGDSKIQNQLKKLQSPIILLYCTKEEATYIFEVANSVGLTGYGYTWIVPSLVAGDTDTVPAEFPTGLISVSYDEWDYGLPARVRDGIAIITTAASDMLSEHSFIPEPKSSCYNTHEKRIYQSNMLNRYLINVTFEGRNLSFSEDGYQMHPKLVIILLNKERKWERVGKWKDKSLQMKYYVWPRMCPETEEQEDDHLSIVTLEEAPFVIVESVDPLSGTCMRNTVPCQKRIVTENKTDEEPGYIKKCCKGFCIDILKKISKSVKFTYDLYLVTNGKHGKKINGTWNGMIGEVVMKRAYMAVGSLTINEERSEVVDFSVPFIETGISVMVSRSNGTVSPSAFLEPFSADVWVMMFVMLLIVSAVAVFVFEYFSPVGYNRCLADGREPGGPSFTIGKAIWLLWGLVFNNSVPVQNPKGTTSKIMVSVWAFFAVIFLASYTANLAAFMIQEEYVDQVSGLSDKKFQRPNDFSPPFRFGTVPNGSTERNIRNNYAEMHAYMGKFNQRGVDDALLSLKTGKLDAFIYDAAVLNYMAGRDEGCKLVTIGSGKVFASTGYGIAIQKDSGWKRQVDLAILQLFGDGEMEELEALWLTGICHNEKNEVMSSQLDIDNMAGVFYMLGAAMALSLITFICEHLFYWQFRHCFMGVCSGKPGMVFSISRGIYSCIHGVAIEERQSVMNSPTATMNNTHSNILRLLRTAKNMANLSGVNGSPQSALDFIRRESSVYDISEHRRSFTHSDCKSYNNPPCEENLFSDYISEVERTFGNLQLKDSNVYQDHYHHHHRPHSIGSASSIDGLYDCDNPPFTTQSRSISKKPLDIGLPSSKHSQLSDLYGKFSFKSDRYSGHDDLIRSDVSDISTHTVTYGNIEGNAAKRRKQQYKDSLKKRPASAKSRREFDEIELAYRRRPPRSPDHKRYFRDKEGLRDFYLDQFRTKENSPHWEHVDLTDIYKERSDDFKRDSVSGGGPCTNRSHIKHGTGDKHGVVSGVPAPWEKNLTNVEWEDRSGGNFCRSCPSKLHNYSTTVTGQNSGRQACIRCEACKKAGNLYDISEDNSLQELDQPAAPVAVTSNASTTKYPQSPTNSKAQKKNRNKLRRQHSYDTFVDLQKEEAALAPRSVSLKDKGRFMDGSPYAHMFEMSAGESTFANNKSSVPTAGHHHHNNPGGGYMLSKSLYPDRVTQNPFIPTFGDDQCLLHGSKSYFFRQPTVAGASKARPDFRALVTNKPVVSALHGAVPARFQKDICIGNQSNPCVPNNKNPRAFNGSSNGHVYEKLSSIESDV

Structure (SMILES) | IC50
COc1nnc(Cn2ncc3ncc(-c4ccc(F)c(OC(F)F)c4)cc32)s1 [Example 134, 2-[[6-[3-(difluoromethoxy)-4-fluoro-phenyl]pyrazolo[4,3-b]pyridin-1-yl]methyl]-5-methoxy-1,3,4-thiadiazole] | 1.32 µM
[2H]c1nn(Cc2nnc(C)o2)c2cc(-c3ccc(F)c(C(F)F)c3)cnc12 [compound 297, 2-[[3-Deuterio-6-[3-(difluoromethyl)-4-fluoro-phenyl]pyrazolo [4,3-b]pyridin-1-yl]methyl]-5-methyl-1,3,4-oxadiazole] | 0.024 µM

From patent publication US11530210B2, “Substituted heteroaromatic pyrazolo-pyridines and their use as GLUN2B receptor modulators” (JANSSEN PHARMACEUTICA NV, priority 2019, dated 2022)
